Here are results for two compounds from paper PMC11413853, “Discovery of VU6007496: Challenges in the Development of an M1 Positive Allosteric Modulator Backup Candidate” (ACS Chemical Neuroscience, 2024).

Each structure is given as a SMILES string. Entries after “also recorded” stand apart in the source; their conditions may differ. Read-outs that look alike come from different tables or passages of the source.

Common to all, as to format: in vivo
Data set [1] can be described thus: Rat IV plasma:brain level cassette. To be noted: male, 0.25 mg/kg; for concentration at 15 min: Sprague Dawley; for Kp uu at 0.25 h / Kp at 0.25 h: Sprague-Dawley, brain and plasma, 15 min; for Kp at 0.25 h: brain:plasma. As for the experimental part: PAMs 11 and 12 were next evaluated in our rat IV plasma: brain level cassette paradigm (0.25 mg/kg compound, 1 mg/kg total dose, 10.1% EtOH:40.4% PEG400:49.5% DMSO) sampled at a set 15 min time point to assess CNS penetration. […] As mice are the most sensitive species to cholinergic mechanisms,[11],[13],[23],[24] we placed a high-throughput phenotypic seizure liability assay into the work-flow in which potent ago-PAMs, such as 2–5,[8]−[15] display robust Racine scale 4/5 behavioral convulsions that develop within minutes of dosing and last for the 3 h duration of the study. […] In parallel, we performed electrophysiology studies in mouse native tissue layer V medial prefrontal cortex (mPFC). […] Thus, both compounds cleared the major hurdles of CNS penetration and the liability of M1 overstimulation. […]
LC/MS/MS Bioanalysis of Samples from Plasma Protein Binding and Intrinsic Clearance […]
Samples were analyzed on a Thermo Electron TSQ Quantum Ultra triple quad mass spectrometer (San Jose, CA) via electrospray ionization (ESI) with two Themo Electron Accella pumps (San Jose, CA), and a Leap Technologies CTC PAL autosampler (Carrboro, NC). Analytes were separated by gradient elution on a dual column system with two Thermo Hypersil Gold (2.1 x 30 mm, 1.9 µm) columns (San Jose, CA) thermostated at 40 °C. HPLC mobile phase A was 0.1% formic acid in water and mobile phase B was 0.1% formic acid in acetonitrile. The gradient started […]
for 0.2 min; returned to 10% B in 0.1 min. The total run time was 1.3 min and the HPLC flow rate was 0.8 mL/min. While pump 1 ran the gradient method, pump 2 equilibrated the alternate column isocratically at 10% B. Compound optimization, data collection, and processing was performed using Thermo Electron's QuickQuan software (v2.3) and Xcalibur (v2.0.7 SP1).
In vivo DMPK experimental:
Determination of brain to plasma ratio:
All animal study procedures were approved by the Institutional Animal Care and Use Committee and were conducted in accordance with the National Institutes of Health regulations of animal care covered in Principles of Laboratory Animal Care (National Institutes of Health). All rats were fasted overnight prior to testing.
For determination of the brain over plasma ratio (Kp), compounds were formulated in 8% ethanol, 32% PEG400 and 60% DMSO (v/v/v) and administered as a single 0.2 mg/kg IV dose (1 mL/kg) to male, Sprague Dawley rats (n = 1) via injection into a surgically-implanted jugular vein catheter. At 15 min post dosing, blood sample was collected into chilled, K2EDTA anticoagulant-fortified tube and immediately placed on wet ice. The blood sample was then centrifuged (1700 rcf, 5 minutes, 4 °C) to obtain plasma sample. At the same post-administration time point, whole brain sample was obtained by rapid dissection, rinsed with PBS, and immediately frozen in individual tissue collection box (dry ice). All brain and plasma samples were stored at -80 °C until […]
Sample Analysis: Concentrations in plasma and brain homogenates were quantified by liquid chromatography tandem mass spectrometry (LC-MS/MS). Whole brains were homogenized in 3 mL of 70:30 IPA:water in a mini bead beater for 3 min, and centrifuged at 3,500 g for 5 min. 5 uL of the supernatant was diluted in 15 uL of blank plasma for quantification of the analytes. Plasma samples were centrifuged at 3,500 g for 5 min. A standard curve was generated by diluting the analytes DMSO stocks with blank plasma to obtain a final concentration of 10,000 ng/ml followed by a serial dilution down to 0.5 ng/ml. Quality controls were generated by a serial dilution of the 5,000 ng/ml standard curve solution in blank plasma to obtain 3 concentrations of 500, 50, and 5 ng/ml. 20 uL of brain diluted in plasma, plasma, blank plasma, standard curve and QC samples were loaded in a V-bottom 96-well plate. 120 uL of acetonitrile containing 0.05 uM carbamazepine (internal standard) was added to each well and the plate was centrifuged at 3,500 g for 5 min. 60 […]

The next data set deals with mice. The data set is described as follows: Mouse phenotypic seizure liability assay (modified Racine score). The note with it: 100 mg/kg i.p.; for seizure liability / behavioral convulsions (modified Racine score): male C57Bl/6 mice, 3 h. The method, then:
Brain plasma concentration ratio (Kp) was calculated by dividing brain concentration by plasma concentration for each animal. Unbound brain to unbound plasma concentration ratio (Kp,uu) is calculated using the following formula: Kp,uu = (Brain ng/g x brain fu)/(plasma ng/ml x plasma fu). […]
Behavioral Manifestations of Seizure Activity
To evaluate induction of behavioral manifestation of seizure activity, C57Bl/6 mice received administration of vehicle or 100 mg/kg M1 PAM. Compounds were formulated in 30% Captisol (11) or 10% Tween 80 (2-4 and 12) (pH 7.0) at a concentration of 10 mg/mL and injected i.p. (n = 3). Animals were monitored continuously and scored for behavioral manifestations of seizure activity at 5, 10, 15, and 30 min, and 1 and 3 h. Behavioral manifestations of seizures were scored using a modified Racine scoring system.2 Briefly, a score of 0 represents no behavior alterations; score 1, immobility, mouth and facial movements, or facial clonus; score 2, head nodding, tail extension; score 3, forelimb clonus, repetitive movements; score 4, rearing and tonic clonic seizure; and score 5, continuous rearing and falling, severe generalized tonic clonic seizure.

Data set [2] in a line: IV/PO pharmacokinetics, rat. To be noted: rat (SD), dose iv/po 1/10 mg/kg; for clearance / Vd / half-life: Sprague-Dawley, plasma, 1 mg/kg; for clearance: read-out: CLp; for Vd: read-out: Vss; for half-life: read-out: elimination t1/2 (converted). The method, then: We next conducted multispecies IV/PO PK in parallel as a potential discerning data set. […] With a strong desire to employ dog as the nonrodent safety species, the challenge to address the low %F in dog was enough to triage PAM 12 and focus on the advancement of 11 (Table 3). […]
Pharmacokinetic profiles in rats following oral single escalating doses Single escalating oral dosing in Sprague-Dawley rats was performed at Frontage Laboratories according to their non-GLP Standard Operating Procedure and IACUC protocols. In short, compounds were formulated in 10% Tween 80 in water and dosed at 10 mg/kg. At different times, arterial blood was collected from a femoral artery catheter, and compound concentration was determined in plasma by LC-MS/MS following their non-GLP protocol. PK parameters were determined using Phoenix WinNonlin software (version 6.3). […]

Setting [3] is: brain, read-out: brain concentration.
Setting [4] is: plasma, read-out: plasma concentration.

Broadly, the Kp is tissue or fluid exposure divided by exposure in the circulation. On to `Cn1ccc(-c2ccc(Cc3cc(C(=O)NC4CCOCC4)nc4ccn(C)c34)cc2)n1` [compound 11], for which, in data set [1] (setting [3]), the concentration at 15 min came out at 39 ng/g. For the same compound, the concentration at 15 min in data set [1] (setting [4]) was 92.2 ng/mL. In data set [1], this compound returned a Kp uu at 0.25 h of 0.36 and a Kp at 0.25 h of 0.42. The “seizure liability / behavioral convulsions (modified Racine score)” value in the data set on mice is “did not induce seizure liability; also recorded: did not cause any observed adverse effects”. In the data set on mice (mouse), this compound showed a total brain exposure of 1.04 µM. For the same compound, in data set [2], the clearance is 26 mL/min/kg, the Vd worked out at 3.2 L/kg, the half-life is 6.1 h and the “F (%) po” value stood at 66%.
In the case of `Cn1ccc(-c2ccc(Cc3cc(C(=O)NC4CCOCC4)nc4ccsc34)cc2)n1` [compound 12], in data set [1] (setting [3]), the concentration at 15 min was found to be 120 ng/g. The concentration at 15 min in data set [1] (setting [4]) amounted to 105 ng/mL. In data set [1], this compound displayed a Kp uu at 0.25 h of 0.7 and a Kp at 0.25 h of 1.1. Besides, the “seizure liability / behavioral convulsions (modified Racine score)” value with mice was “did not induce seizure liability; also recorded: did not cause any observed adverse effects”. Moreover, in data set [2], the clearance was determined as 33 mL/min/kg, the Vd worked out at 8.2 L/kg, the half-life was 5.3 h and the “F (%) po” value came to 100%.
